The IC50 is the concentration needed to halve the response being measured. The low end stands for greater potency in that assay, the high end for weaker potency in that assay.

This test concerns the target T1, rppGalNAcT-7 (Rattus norvegicus, UniProt Q9R0C5).
T1 construct: plasmids encoding truncated secreted ppGalNAcTs-1 to −5, -7, -10 and -11; made in house; host or cells: COS-7
T1 sequence (Q9R0C5 30-657 limits assumed): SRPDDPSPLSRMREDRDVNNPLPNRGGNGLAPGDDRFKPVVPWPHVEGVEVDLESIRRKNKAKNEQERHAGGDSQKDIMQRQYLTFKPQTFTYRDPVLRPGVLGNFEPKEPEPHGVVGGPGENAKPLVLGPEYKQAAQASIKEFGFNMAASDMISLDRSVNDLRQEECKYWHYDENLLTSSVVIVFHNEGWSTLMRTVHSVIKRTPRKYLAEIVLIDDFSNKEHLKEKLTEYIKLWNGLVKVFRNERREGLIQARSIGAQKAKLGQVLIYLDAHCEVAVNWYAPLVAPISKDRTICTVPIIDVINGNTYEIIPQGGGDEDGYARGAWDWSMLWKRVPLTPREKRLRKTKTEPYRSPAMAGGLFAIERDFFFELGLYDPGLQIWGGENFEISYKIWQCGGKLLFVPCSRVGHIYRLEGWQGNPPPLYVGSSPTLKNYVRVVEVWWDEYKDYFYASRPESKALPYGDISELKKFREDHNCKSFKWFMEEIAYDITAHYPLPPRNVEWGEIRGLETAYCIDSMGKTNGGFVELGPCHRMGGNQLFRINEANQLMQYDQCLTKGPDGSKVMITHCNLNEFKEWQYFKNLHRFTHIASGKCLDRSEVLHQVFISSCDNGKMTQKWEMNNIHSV
Nature of the test: Radiolabel capture assay, rppGalNAcT-7. Type of test: biochemical. As to conditions: MUC5AC glycopeptide. As to the method: Radiolabel capture assays using ^14C-labeled UDP-GalNAc were performed as previously described with various concentrations of 1-68A or 2-68A in 2% DMSO. Ten Hagen et al. (2001) J. Biol. Chem. 276:17395-17404.
Table 1. IC50 values for 1-68A and 2-68A with ppGalNAcTs-1 to −5, -7, -10, -11, β1-4GalT and α1-3GalT. The requirement of glycopeptides as substrates for ppGalNAcT-7 and -10 precluded the use of the ELLA, as both the substrate and product bind HPA-HRP. Thus, the radiolabel capture assay was employed to measure the IC50 values of 1-68A and 2-68A with ppGalNAcT-7 and -10 using MUC5AC (GTTPSPVPTTSTTSAP; SEQ ID NO:15) glycopeptide, previously shown to be substrate for both enzymes. Ten Hagen et al. (1999) J. Biol. Chem. 274:27867-27874; and Ten Hagen et al. (2001) J. Biol. Chem. 276:17395-17404. IC50 values of 1-68A and 2-68A with ppGalNAcT-5 were performed with α-FLAG purified enzyme and radiolabel capture assay, due to low activity and stability of the crude enzyme. m=murine, r=rattus.

The compound `O=c1ccn([C@@H]2O[C@H](CON=Cc3ccc(O)c(O)c3O)[C@@H](O)[C@H]2O)c(=O)[nH]1` [1-68A] showed an IC50 of 22 ± 2 µM.
For `O=C(CON=Cc1ccc(O)c(O)c1O)NC[C@H]1O[C@@H](n2ccc(=O)[nH]c2=O)[C@H](O)[C@@H]1O` [2-68A], the IC50 worked out at 27 ± 2 µM.

The values above are taken from US20060063736A1, “Compositions and methods for inhibiting mucin-type O-linked glycosylation” (priority 2004, published 2006).
